Where “and” joins values, the source holds several entries; their conditions need not be identical. Equal values may be shown once. Toxic doses and inconclusive results are not listed. The calls were made as follows: active = survival T/C of 150% or more; inactive = T/C below 125% in these data.
Tested on: P388 leukemia ip, CD2F1 mice, survival T/C
Assay: NCI In Vivo Anticancer Drug Screen. Data for tumor model P388 Leukemia (intraperitoneal) in CD2F1 (CDF1) mice
Conditions: endpoint: median survival time, higher = longer survival
Summary of the method: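 Mice carrying the transplanted tumor received test compound or vehicle. Survival was recorded in each group, and the value is the treated-group measurement divided by that of the vehicle-treated control group.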

[1] = dose: 100.0 mg/kg/injection, schedule: Q04DX002 (ip), vehicle: saline
[2] = dose: 200.0 mg/kg/injection, schedule: Q04DX002 (ip), vehicle: saline
[3] = dose: 400.0 mg/kg/injection, schedule: Q04DX002 (ip), vehicle: saline
[4] = dose: 12.5 mg/kg/injection, schedule: Q01DX009 (ip), vehicle: saline
[5] = dose: 25.0 mg/kg/injection, schedule: Q01DX009 (ip), vehicle: saline
[6] = dose: 50.0 mg/kg/injection, schedule: Q01DX009 (ip), vehicle: saline
[7] = dose: 50.0 mg/kg/injection, schedule: Q01DX009 (ip), vehicle: suspension in saline
[8] = dose: 25.0 mg/kg/injection, schedule: Q04DX003 (ip), vehicle: saline with Tween-80
[9] = dose: 50.0 mg/kg/injection, schedule: Q01DX009 (ip), vehicle: saline with Tween-80
[10] = dose: 50.0 mg/kg/injection, schedule: Q04DX003 (ip), vehicle: saline with Tween-80
[11] = dose: 100.0 mg/kg/injection, schedule: Q04DX003 (ip), vehicle: saline with Tween-80
[12] = dose: 12.5 mg/kg/injection, schedule: Q01DX009 (ip), vehicle: saline with Tween-80
[13] = dose: 25.0 mg/kg/injection, schedule: Q01DX009 (ip), vehicle: saline with Tween-80
[14] = dose: 100.0 mg/kg/injection, schedule: Q01DX009 (ip), vehicle: saline
[15] = dose: 200.0 mg/kg/injection, schedule: Q01DX009 (ip), vehicle: saline
[16] = dose: 10.0 mg/kg/injection, schedule: Q01DX009 (ip), vehicle: saline with Tween-80
[17] = dose: 60.0 mg/kg/injection, schedule: Q01DX005 (ip), vehicle: saline with Tween-80
[18] = dose: 120.0 mg/kg/injection, schedule: Q01DX005 (ip), vehicle: saline with Tween-80
[19] = dose: 240.0 mg/kg/injection, schedule: Q01DX005 (ip), vehicle: saline with Tween-80
[20] = dose: 50.0 mg/kg/injection, schedule: Q01DX005 (ip), vehicle: saline with Tween-80
[21] = dose: 100.0 mg/kg/injection, schedule: Q01DX005 (ip), vehicle: saline with Tween-80
[22] = dose: 200.0 mg/kg/injection, schedule: Q01DX005 (ip), vehicle: saline with Tween-80

Measured: T/C

Cc1ccc(C2(C)C(=O)c3ccccc3C2=O)cc1
inactive: [1] 101 % of control | [2] 100 % of control | [3] 107 % of control

[CH3][Sn]([CH3])([N]=C=S)[N]=C=S
inactive: dose: 6.25 mg/kg/injection, schedule: Q01DX009 (ip), vehicle: saline 86 % of control and 93 % of control | [4] 100 % of control and 102 % of control and 106 % of control | [5] 99 % of control and 102 % of control | [6] 99 % of control and 103 % of control | [7] 114 % of control

S=P(NCCNP(=S)(N1CC1)N1CC1)(N1CC1)N1CC1
inactive: [8] 122 % of control | [9] 95 % of control | dose: 75.0 mg/kg/injection, schedule: Q04DX003 (ip), vehicle: saline with Tween-80 90 % of control | [11] 86 % of control
active: dose: 33.0 mg/kg/injection, schedule: Q04DX003 (ip), vehicle: saline with Tween-80 165 % of control | [10] 170 % of control and 177 % of control

Clc1ccc(N=c2ccn3ccccc3c2)cc1Cl
inactive: [12] 94 % of control | [13] 94 % of control | [9] 97 % of control

O=S(=O)(O)c1cc(O)c(O)c(S(=O)(=O)O)c1
inactive: [14] 101 % of control and 95 % of control | [15] 100 % of control and 94 % of control | dose: 400.0 mg/kg/injection, schedule: Q01DX009 (ip), vehicle: saline 100 % of control and 103 % of control | dose: 600.0 mg/kg/injection, schedule: Q01DX009 (ip), vehicle: saline 104 % of control and 90 % of control

CC1=C2CC/C(C)=C/CCC3(C)OC3CC/C(C)=C/C2OC1=O (stereo not given)
inactive: dose: 1.25 mg/kg/injection, schedule: Q01DX009 (ip), vehicle: other 118 % of control | dose: 2.0 mg/kg/injection, schedule: Q01DX009 (ip), vehicle: Klucel (hydroxypropylcellulose) (HPC) 91 % of control | dose: 2.5 mg/kg/injection, schedule: Q01DX009 (ip), vehicle: other 105 % of control | dose: 4.0 mg/kg/injection, schedule: Q01DX009 (ip), vehicle: Klucel (hydroxypropylcellulose) (HPC) 89 % of control | dose: 5.0 mg/kg/injection, schedule: Q01DX009 (ip), vehicle: other 112 % of control | [16] 92 % of control | dose: 16.0 mg/kg/injection, schedule: Q01DX009 (ip), vehicle: Klucel (hydroxypropylcellulose) (HPC) 94 % of control | dose: 20.0 mg/kg/injection, schedule: Q01DX009 (ip), vehicle: saline with Tween-80 89 % of control | dose: 32.0 mg/kg/injection, schedule: Q01DX009 (ip), vehicle: Klucel (hydroxypropylcellulose) (HPC) 94 % of control | dose: 40.0 mg/kg/injection, schedule: Q01DX009 (ip), vehicle: saline with Tween-80 108 % of control

CNC1=CC(=O)c2c(c3cc(O)ccc3n2C)C1=O
inactive: [4] 103 % of control | [5] 103 % of control | [6] 103 % of control and 87 % of control | [15] 104 % of control

O=[N+]([O-])c1cccnc1N=Nc1c(O)[nH]c2ccccc12
inactive: [17] 100 % of control | [18] 101 % of control | [19] 110 % of control

O=C(O)CC1SC(c2ccccc2Cl)N(/N=C/c2ccccc2Cl)C1=O (stereo not given)
inactive: [12] 102 % of control | [13] 98 % of control | [9] 99 % of control and 87 % of control

CC1(C)CC(OC(=O)c2c3ccccc3c3ccc4cccc5ccc2c3c54)CC(C)(C)N1O
inactive: [9] 91 % of control | dose: 100.0 mg/kg/injection, schedule: Q01DX009 (ip), vehicle: saline with Tween-80 91 % of control | dose: 200.0 mg/kg/injection, schedule: Q01DX009 (ip), vehicle: saline with Tween-80 90 % of control

CN(C)C1C(O)C2Oc3c(cc(O)c4c3C(=O)c3cc5c(c(O)c3C4=O)CCC(C)(O)C5)C(C)(O2)C1O (stereo not given)
inactive: dose: 12.5 mg/kg/injection, schedule: Q04DX003 (ip), vehicle: other 112 % of control | dose: 25.0 mg/kg/injection, schedule: Q04DX003 (ip), vehicle: other 113 % of control | dose: 50.0 mg/kg/injection, schedule: Q04DX003 (ip), vehicle: other 118 % of control | dose: 100.0 mg/kg/injection, schedule: Q04DX003 (ip), vehicle: other 122 % of control

O=[N+]([O-])c1ccc(CS(=O)(=O)c2cccs2)o1
inactive: [7] 106 % of control | dose: 100.0 mg/kg/injection, schedule: Q01DX009 (ip), vehicle: suspension in saline 100 % of control

CCCCCCCCCCCCCCCCOP(=O)(O)OCCCCCCCCCCCCCCCC
inactive: [11] 88 % of control | dose: 200.0 mg/kg/injection, schedule: Q04DX003 (ip), vehicle: saline with Tween-80 90 % of control

CC(=O)Nc1cccc(N(CCOS(C)(=O)=O)CCOS(C)(=O)=O)c1
active: dose: 20.0 mg/kg/injection, schedule: Q04DX003 (ip), vehicle: saline with Tween-80 172 % of control

CN(CC(=O)NN)c1ccccc1
inactive: [20] 93 % of control | [21] 95 % of control | [22] 95 % of control

CC1C(=O)c2cc3c(cc2CCN(C)Cc2c1ccc1c2OCO1)OCO3 (stereo not given)
inactive: dose: 5.0 mg/kg/injection, schedule: Q01DX009 (ip), vehicle: saline with Tween-80 100 % of control | [16] 99 % of control | [12] 90 % of control | [8] 109 % of control | [9] 90 % of control | [10] 104 % of control

Cc1nc(NN)nc(N)c1S(=O)(=O)Cc1ccc(Cl)cc1
inactive: [1] 94 % of control | [2] 90 % of control | [3] 90 % of control

CCCCCCCCCCOC(=O)CC(C)=O.CCCCCCCCCCOC(=O)CC(C)=O.[Ni+2]
inactive: [4] 98 % of control | [5] 100 % of control | [6] 98 % of control and 91 % of control | [14] 86 % of control

COCN(C)N=Nc1ccc(C(C)=O)cc1
inactive: dose: 50.0 mg/kg/injection, schedule: Q01DX005 (ip), vehicle: Klucel (hydroxypropylcellulose) (HPC) 100 % of control | dose: 100.0 mg/kg/injection, schedule: Q01DX005 (ip), vehicle: Klucel (hydroxypropylcellulose) (HPC) 104 % of control | dose: 200.0 mg/kg/injection, schedule: Q01DX005 (ip), vehicle: Klucel (hydroxypropylcellulose) (HPC) 121 % of control

CCOP(=S)(OCC)Oc1ccccc1
inactive: [1] 104 % of control | [2] 113 % of control | [3] 115 % of control

COc1ccc(-c2[nH]c(=O)c(C#N)c(C(=O)NN)c2-c2ccc(OC)cc2)cc1
inactive: [17] 112 % of control | [18] 100 % of control | [19] 89 % of control

CC(c1ccccc1)[c-]1[c-][c-][c-][c-]1.[Cl][Zr][Cl].[c-]1[c-][c-][cH-][c-]1 (stereo not given)
inactive: dose: 3.12 mg/kg/injection, schedule: Q01DX009 (ip), vehicle: saline with Tween-80 93 % of control | dose: 6.25 mg/kg/injection, schedule: Q01DX009 (ip), vehicle: saline with Tween-80 104 % of control | [12] 104 % of control | [9] 95 % of control

C[C@]12CC[C@@H]3c4ccc(OCCO)c([N+](=O)[O-])c4CC[C@H]3[C@@H]1CCC2=O
inactive: [20] 104 % of control | [21] 104 % of control | [22] 97 % of control

CNC(=O)OCCC(OC(=O)NC)C1CCC2C3CCC4CC(OC(=O)c5ccccc5)CCC4(C)C3CCC12C (stereo not given)
inactive: dose: 60.0 mg/kg/injection, schedule: Q01DX005 (ip), vehicle: Klucel (hydroxypropylcellulose) (HPC) 107 % of control | dose: 120.0 mg/kg/injection, schedule: Q01DX005 (ip), vehicle: Klucel (hydroxypropylcellulose) (HPC) 98 % of control | dose: 240.0 mg/kg/injection, schedule: Q01DX005 (ip), vehicle: Klucel (hydroxypropylcellulose) (HPC) 93 % of control

N#Cc1ccccc1NCc1ccccc1
inactive: dose: 12.5 mg/kg/injection, schedule: Q01DX009 (ip), vehicle: distilled water + Tween-80 103 % of control | dose: 25.0 mg/kg/injection, schedule: Q01DX009 (ip), vehicle: distilled water + Tween-80 102 % of control | dose: 50.0 mg/kg/injection, schedule: Q01DX009 (ip), vehicle: distilled water + Tween-80 100 % of control and 97 % of control | dose: 100.0 mg/kg/injection, schedule: Q01DX009 (ip), vehicle: distilled water + Tween-80 100 % of control and 103 % of control and 92 % of control | dose: 200.0 mg/kg/injection, schedule: Q01DX009 (ip), vehicle: distilled water + Tween-80 94 % of control and 95 % of control (2×) | dose: 400.0 mg/kg/injection, schedule: Q01DX009 (ip), vehicle: distilled water + Tween-80 99 % of control and 93 % of control | dose: 600.0 mg/kg/injection, schedule: Q01DX009 (ip), vehicle: distilled water + Tween-80 99 % of control

Reference: PubChem BioAssay AID330 (DTP/NCI, 2004)
